Consider seven compounds from article PMC10974622, “Hybrid Peptide-Alkoxyamine Drugs: A Strategy for the Development of a New Family of Antiplasmodial Drugs” (Molecules, 2024).

One series has as its target PLM I (Plasmodium falciparum, UniProt P39898). Kind of series: Enzymatic activation monitored by EPR, PLM I. Format: biochemical.
In series [1] the test system is Vero cells. As to conditions: cited from earlier work.
The test system of series [2] is P. falciparum strain F32-ART (artemisinin-resistant). Kind of series: microbe, parasite or virus in culture. Format: cell-based, Plasmodium falciparum. As to conditions: for Selectivity Index CC50/IC50: cytotoxicity (Vero cells)/antiplasmodial activity (F32-ART) ratio. The source says:
The antimalarial activity of peptide-alkoxyamine hybrids was first evaluated in the in vitro antiproliferative test (IC50) using the artemisinin-resistant strain F32-ART (Table 2, Table S1). The roles of the N-substitution of the alkoxyamine moiety (TEMPO- or DBNO-based, for example, A3L/A8L, line 1/line 10), of the configuration (L or D of the peptide, A3L/A3D, line 1/line 2), of the N-protection of the peptide (A3L/A4L or A5L, line 1/ lines 3 and 5) were examined. According to standard rules in the malaria field, only molecules having IC50 values below 1 μM were considered active.
The F32-ART (artemisinin-resistant) strain and the F32-TEM (artemisinin-sensitive strain) were cultured according to Trager and Jensen in RPMI 1640 medium (Fisher Scientific, Illkirch, France) supplemented with 5% human serum (Etablissement français du Sang, Toulouse, France) at 2% hematocrit with type O human blood (Etablissement français du Sang, Toulouse, France), 37 °C, and 5% CO2 in a humidified atmosphere.
(§1) IC50 values corresponding to 50% inhibition of P. falciparum growth were determined by SYBR Green assay, and the assessment of cytotoxicity was performed on Vero cells (cell line from the kidney of a normal adult African green monkey), as previously published. The selectivity index corresponded to the cytotoxicity/activity ratio.

A further series has as its target T1, chymotrypsin (Bos taurus, UniProt P00766).
T1 construct: purchased Worthington
Kind of series: Enzymatic activation and homolysis monitored by EPR, chymotrypsin. Format: biochemical. As to conditions: 37 °C. The procedure: Due to the low solubility of A3L/D–A5L/D in water, suitable concentrations (ca. 0.1 mM) for EPR detection could not be reached. Thus, A7L was prepared, which afforded a carboxylate function at a physiological pH. […] As other PLMs were not available, chymotrypsin, a pancreatic protease that accepts substrates with Phe in the P1 position, was used to hydrolyse A7L. The release of the free alkoxyamine, which decomposed spontaneously and rapidly into alkyl radical R3• and nitroxide R1R2NO•, and the concentration in nitroxide was monitored with EPR (Figure 3).
Kinetics were performed in HEPES 50 mM buffer containing […] at 37 °C. Then, 2.5 mM of hemin (Santa Cruz biotechnology, Heidelberg, Germany) was added to scavenge the alkyl radicals. In one, kinetic Chymotrypsin (Worthington, OH, USA) was added. Activation and homolysis were monitored by reading the concentrations of released TEMPO using, versus time, a calibrated EPR spectrometer (EMX Nano, Bruker, Wissembourg, France).

The nature of the next series: Solubility in water. Format: physicochemical.
A further series deals with S. mansoni. Also noted: method as in doi:10.1021/cr00014a008. As to conditions: 100 μg/mL, in 2 h, in vitro ref 22; cited from earlier work.
Series [3] concerns Vero cells. Kind of series: in vitro. As to conditions: African green monkey. It is filed as cell-based, African green monkey. How it is done:
as §1

Another series can be described thus: in vitro. Format: cell-based, African green monkey. As to conditions: African green monkey, Cytotoxicity CC50. The procedure:
as §1

For a further series, the system named is F32-ART parasites. Kind of series: Parasitemia monitoring and parasite morphology upon drug exposure, F32-ART ring-stage parasites. As to conditions: 48 h exposure. Format: cell-based, Plasmodium falciparum. How it is done:
The effect of hybrid compounds against Plasmodium parasites was assessed by the microscopic examination of parasite morphology upon drug exposure. For this purpose, parasites were synchronized at 0–4 h age by percoll-sorbitol treatment, 0–24 h age by sorbitol treatment, or at schizont stage by percoll treatment at the start of the experiment. Different treatment schedules were tested. In the case of multiple doses, parasite cultures were washed before each new drug addition.

In series [4] the test system is F32-ART parasites at the quiescent stage. Kind of series: Quiescent-stage Survival Assay (QSA). It is filed as cell-based, Plasmodium falciparum. As to conditions: 700 nM DHA 6 h/(DHA + molecule 7 µM) 48 h. The procedure:
In this assay, parasites were exposed to dihydroartemisinin (DHA) alone to induce quiescence, prior the addition of the drug to be tested for 48 h, and then the parasite recrudescence was monitored over a maximum of 4 weeks. Activity against quiescent parasites was evidenced by a delay in recrudescence time over 6 days between the conditions “DHA 6 h / DHA 48 h” and “DHA 6 h/(DHA + molecule) 48 h”. Atovaquone was used as a positive control, and its activity against quiescent parasites was here confirmed, as expected, by an extended delay of 11 days in recrudescence time (Figure 5). By contrast, no activity of A8L and A3L against quiescent parasites was evidenced in the QSA, with similar recrudescence time between the conditions “DHA 6 h/DHA 48 h” and “DHA 6 h/(DHA + molecule) 48 h”. […] To understand this phenomenon, we explored the parasite response during treatment with these hybrid compounds.
The QSA was performed according to Reyser et al.. Briefly, ART-resistant ring-stage parasites at 3% parasitemia were exposed for 6 h to 700 nM of DHA (dihydroartemisinin) to induce quiescence or were exposed to no drugs (control condition). After that, the compound to be tested was added in both conditions […]. At the end of the treatment, the drugs were washed off with RPMI-1640, and parasites were replaced in drug-free conditions. Blood smears were performed to follow parasitemia until the day the cultures reached their starting parasitemia, defined as the recrudescence day. If after 30 days no parasite recrudescence was observed, then the data were censored. Data analysis was performed using Kaplan–Meier survival curves. Statistical significance was ascertained by using a log-rank (Mantel-Cox) test using GraphPad Prism 7 software (San Diego, CA, USA).

Where [5] appears, read: Plasmodium falciparum, F32, read-out: Antiplasmodial Activity IC50, strain F32-ART, SYBR Green assay, mean ± SEM of 3 to 6 experiments.
Where [6] appears, read: read-out: Antiplasmodial Activity IC50, strain F32-ART, SYBR Green assay, mean ± SEM of 3 to 6 experiments.

Molecules are shown by their SMILES. Read-outs that look alike come from different tables or passages of the source.

Chain of PLM I (P39898 124-452): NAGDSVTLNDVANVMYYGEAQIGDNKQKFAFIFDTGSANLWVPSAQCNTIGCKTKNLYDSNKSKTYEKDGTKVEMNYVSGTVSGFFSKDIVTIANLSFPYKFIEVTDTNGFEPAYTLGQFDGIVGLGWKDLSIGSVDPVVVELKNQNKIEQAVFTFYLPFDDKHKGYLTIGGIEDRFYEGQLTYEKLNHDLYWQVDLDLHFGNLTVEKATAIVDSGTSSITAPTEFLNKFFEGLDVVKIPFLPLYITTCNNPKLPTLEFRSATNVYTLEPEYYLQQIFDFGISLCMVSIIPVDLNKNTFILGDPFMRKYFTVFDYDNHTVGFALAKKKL

For orientation: CC50 means the concentration giving 50% cytotoxicity. As usually defined, the IC50 is the concentration needed to halve the response being measured. For the compound `CC(ON1C(C)(C)CCCC1(C)C)c1ccc(NC(=O)[C@H](Cc2ccccc2)NC(=O)[C@@H](NC(=O)[C@H](Cc2ccccc2)NC(=O)CCC(=O)O)C(C)C)cc1` (stereo partly drawn) [A7L, suc-Phe-Val-Phe-anilide-TEMPO], on PLM I, the “EPR signal of TEMPO in the presence of PLM I” value is “no EPR signal of TEMPO could be observed”. Besides, the CC50 in the series on Vero cells [1] is above 50 µM. Besides, the IC50 in series [2] (setting [5]) was 5 ± 3 µM. The “Selectivity Index CC50/IC50” value in series [2] is reported as above 10. The “stability of the prodrug” value at chymotrypsin (absence of chymotrypsin) was “stable at 37 °C”. For the same compound, at chymotrypsin (presence of chymotrypsin, HEPES buffer), the “activation by protease, release of nitroxide (EPR)” value is “activatable by chymotrypsin”. Moreover, the “pH above which soluble” value in “Solubility in water” is on record as “above 5.5”.

Consider `CC(ON1C(C)(C)CCCC1(C)C)c1ccc(NC(=O)[C@H](Cc2ccccc2)NC(=O)[C@@H](NC(=O)[C@@H](N)Cc2ccccc2)C(C)C)cc1` (stereo partly drawn) [A4L], for which, in the series on Vero cells [1], the CC50 is above 50 µM. Further, in the series with S. mansoni, the schistosomal population killed is given as 50%. Further, in series [2] (setting [5]), the IC50 was above 50 µM.

With `CC(ON1C(C)(C)CCCC1(C)C)c1ccc(NC(=O)[C@@H](Cc2ccccc2)NC(=O)[C@H](NC(=O)[C@H](N)Cc2ccccc2)C(C)C)cc1` (stereo partly drawn) [A4D], the IC50 was 2.2 to 2.6 µM in series [2] (setting [5]) and 2.3 ± 0.3 µM in [2] (setting [6]). Besides, in series [2], the “Selectivity Index CC50/IC50” value turned out to be 1.1. The CC50 in the series on Vero cells [3] is 2.6 ± 0.3 µM; in the series “in vitro”, 2.2 to 2.6 µM.

For `CC(ON1C(C)(C)CCCC1(C)C)c1ccc(NC(=O)[C@H](Cc2ccccc2)NC(=O)[C@@H](NC(=O)[C@@H](N)Cc2ccccc2)C(C)C)cc1` (stereo partly drawn) [A5L], the CC50 in the series on Vero cells [1] was above 50 µM. For the same compound, the schistosomal population killed in the series with S. mansoni is 50%. Moreover, the IC50 in series [2] (setting [6]) was above 50 µM.

Regarding `C[C@H]1[C@@H](O)O[C@@H]2O[C@@]3(C)CC[C@H]4[C@H](C)CC[C@@H]1[C@@]24OO3` [DHA, dihydroartemisinin, reference compound], the “effect on parasitemia and parasite cell cycle” value in the series with F32-ART parasites is on record as “high parasitemia decrease”.

Regarding `CC(ON1C(C)(C)CCCC1(C)C)c1ccc(NC(=O)[C@H](Cc2ccccc2)NC(=O)[C@@H](NC(=O)[C@H](Cc2ccccc2)NC(=O)OC(C)(C)C)C(C)C)cc1` (stereo partly drawn) [A3L, Boc-Phe-Val-Phe-anilide-TEMPO], the “activity against quiescent parasites in the QSA” value in series [4] was “no activity”. Moreover, the “effect on parasitemia and parasite cell cycle” value with F32-ART parasites was “cytostatic-like effect”. Further, the CC50 in the series with Vero cells [1] is above 50 µM. For the same compound, the IC50 is 0.3 ± 0.04 µM in series [2] (setting [5]) and 0.27 µM in [2] (Plasmodium falciparum, F32, read-out: Antiplasmodial IC50, strain F32-ART). In addition, in series [2], the “Selectivity Index CC50/IC50” value was above 165.

For the compound `CC(ON(C(C)(C)C)C(C)(C)C)c1ccc(NC(=O)[C@@H](Cc2ccccc2)NC(=O)[C@H](NC(=O)[C@H](N)Cc2ccccc2)C(C)C)cc1` (stereo partly drawn) [AW231], the IC50 in [2] (setting [6]) was 4.48 ± 0.29 µM. For the same compound, the midpoint of cytotoxicity in the series on Vero cells [3], the CC50, lay at 6.6 ± 0.4 µM.
